# Assay results as given in US10391150B2, “Treatments for migraine and related disorders” (The University of Chicago, priority 2011, dated 2019).
# Where two headings read alike, the source gives them in different places.
# Experiments:
# [1] = tested on: microglia in hippocampal slice cultures; type: cell-based, rat
# [2] = tested on: OS from cLTP in hippocampal slice cultures; assay: OS / reactive oxygen species generated from chemical long-term potentiation (cLTP) in slice cultures; type: cell-based, rat; details: 3 days treatment (IFN-γ 500 U/mL; IL-11; IGF-1), compared to shams
# Procedure: This beneficial effect of low-level IFN-γ is supported by results from rats. In rats, enrichment, which occurs with hippocampal learning, led to a significant elevation in hippocampal T-cells, IFN-γ and MBP.
# Experiments were performed in rat hippocampal slices cultures and SD induced as previously described (Pusic et al., 2011). Results were derived from n≥3-6/group. […] This is consistent with the neural activity increase seen after SD, which mimics the hyperexcitability evident in migraine patients.
# This prompted the inventors to examine whether insulin could reduce SD susceptibility by increasing CA3 pyramidal neuron bursting. The inventors induced SD trans-synaptically in rat HSC using electrical stimuli (100 μs pulses @ 10 Hz for 1 s) ranging from 1 to 10,000 nC in order to determine SD threshold in sham and experimental groups (Pusic et al., 2011). Results were based on n≥3-6/group. […] This insulin dose approximates the pharmacological levels seen in humans treated with nasal insulin. […] The inventors hypothesized that the effect of insulin occurred through IGF-1 receptor cross-talk.
# The inventors use a well-accepted method for inducing cLTP in slice cultures (Kraig et al., 2010; Otmakhov et al., 2004a; Otmakhov et al., 2004b; Kopec et al., 2006). The protocol consists of raising cAMP levels and increasing synaptic activity using rolipram/forskolin applied in a Mg^2+-free Ringer's solution (36° C.) for 5 min, then allowing slices to recover in normal media.
# [3] = tested on: SD in neocortex and hippocampus of anesthetized rat; assay: SD threshold in vivo (0.5 M KCl injection) after nasal administration; details: a day after nasal treatment (IGF-1 150 μg; IL-11 1 μg; IFN-γ 50,000 units); control 1-8 nL
# Procedure: Images show experimental setups for nasal administration and testing. (FIG. 7A) Nasal injection setup showing heat lamp and thermo-regulator that maintains temperature at 37° C. plus nose cone used to deliver isoflurane anesthesia. (FIG. 7B) Operator is shown administering nasal IGF-1 solution, which is performed in a fume hood to adequately vent isoflurane from nose cone. (FIG. 7C) Image illustrates standard electrophysiology setup. Anesthetized animal is placed into a standard electrophysiology holder and anesthesia maintained by a nose cone delivering 3% isoflurane in oxygen. Arterial oxygen saturation is monitored with a pulse-oximeter. Animals are warmed to 37.5° C. with a heating plate. SD is induced by progressively injecting larger volumes of 0.5 M KCl from an 8 μm diameter microelectrode. SD is registered with a second microelectrode used for DC recordings placed more caudally. After SD is evoked by a given injection pulse, the stimulating electrode is withdrawn and a volume re-injected under mineral oil. The diameter of the resultant KCl injection sphere is then measured off line using a compound microscope and the injection volume calculated. For example, in the above whole animal experiments it took 1-8 nL of 0.5 M KCl to evoke SD in control brain regions while after acute IGF-1 this amount rose to 67-109 nL. A day after IGF-1 treatment the volume needed to evoked SD was 34-48 nL. IFN-γ treatment required 338 nL of 0.5 M KCl a day after treatment and IL-11 required 67-200 nL.
# Rats (FIGS. 6 and 7) are anesthetized with inhalational isoflurane and kept warm. While anesthetized, animals are placed in a supine position and 50 μL of sterile drug (i.e., IFN-γ, IGF-1, or IL-11) solution [or sterile saline vehicle (sham control)] is administered nasally by delivering 5 μL alternating between the left and right naris every 2 min over 20 minutes. Animals are given nasal drug treatments daily at the same time for 7 days before subsequent experiments. Doses for all 3 agents begin with the effective doses noted in our work using slice cultures (1×), then include others (0.1× and 10×). The inventors base this strategy on the fact that the effective culture dose for IGF-1 (40 ng/mL) closely approximates the dose used in vivo (143 μg/kg).
# This approach was applied to measurement of SD threshold (FIG. 10) after treatment (FIG. 7) with nasally administered IGF-1 (150 μg), IL-11 (1 μg), IFN-γ (50,000 units), and insulin (20 μg). […] Resistance against SD was always greater in hippocampus compared to neocortex (n=4, controls; n=3, acutely after IGF-1; n=6, one day after IGF-1; n=6, one day after IL-11; n=6, one day after IFN-γ; and n=3, acutely after insulin).
# Nasal administration followed by SD threshold evaluation in vivo. Vehicle or human recombinant IGF-1 (150 μg) is administered intranasally. SD threshold is established by injection of nanoliter volumes of 0.5 M KCl into neocortex or hippocampus (−2.0 mm from Bregma and 1.5 mm lateral from midline at either 750 μm or 2,800 μm into brain, respectively) using a thin-walled glass pipette and Picospritzer. Once a threshold is established, it is confirmed two more times, with an exemplary record from a vehicle-sham animal shown below. […] The diameter of the injected sphere is then measured using a compound microscope and used to calculate the injected volume, then moles of potassium. […]
molecule,measurement,setting,value
lipopolyssacharide [LPS],number of microglia moving long distances,"[1]; slice cultures, vital imaging",significantly decreased the number of microglia moving long distances
"NC1=N[C@H](O)[C@H]2[C@H]3O[C@]4(O)O[C@@H]([C@@H](O)[C@@]2(N1)[C@@H]4O)[C@]3(O)CO [TTX, tetrodotoxin]",number of microglia moving long distances,[1],significantly increased the number of microglia moving long distances
"Interleukin 11 (protein, listed as Homo sapiens) MNCVCRLVLVVLSLWPDTAVAPGPPPGPPRVSPDPRAELDSTVLLTRSLLADTRQLAAQLRDKFPADGDHNLDSLPTLAMSAGALGALQLPGVLTRLRADLLSYLRHVQWLRRAGGSSLKTLEPELGTLQARLDRLLRRLQLLMSRLALPQPPPDPPAPPLAPPSSAWGGIRAAHAILGGLHLTLDWAVRGLLLLKTRL",OS / reactive oxygen species generated from cLTP,[2],significantly reduced OS
same,volume of 0.5 M KCl needed to evoke SD,[3],67 to 200 nL
